The source made the active and inactive calls.
Columns and labels:
[1] = target: Aryl hydrocarbon receptor (Homo sapiens, UniProt P35869); settings: Potency;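 further: confirmatory quantitative high-throughput screen measuring activation of the AhR signaling pathway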
Insulin-degrading enzyme [2] = target: T1, Insulin-degrading enzyme (Homo sapiens, UniProt P14735); assay: recombinant IDE activation, cell-free – biochemical, fluorescence polarization, counter-screen for IDE activator project, dose response (AID 588681)
T1 sequence (P14735 whole entry): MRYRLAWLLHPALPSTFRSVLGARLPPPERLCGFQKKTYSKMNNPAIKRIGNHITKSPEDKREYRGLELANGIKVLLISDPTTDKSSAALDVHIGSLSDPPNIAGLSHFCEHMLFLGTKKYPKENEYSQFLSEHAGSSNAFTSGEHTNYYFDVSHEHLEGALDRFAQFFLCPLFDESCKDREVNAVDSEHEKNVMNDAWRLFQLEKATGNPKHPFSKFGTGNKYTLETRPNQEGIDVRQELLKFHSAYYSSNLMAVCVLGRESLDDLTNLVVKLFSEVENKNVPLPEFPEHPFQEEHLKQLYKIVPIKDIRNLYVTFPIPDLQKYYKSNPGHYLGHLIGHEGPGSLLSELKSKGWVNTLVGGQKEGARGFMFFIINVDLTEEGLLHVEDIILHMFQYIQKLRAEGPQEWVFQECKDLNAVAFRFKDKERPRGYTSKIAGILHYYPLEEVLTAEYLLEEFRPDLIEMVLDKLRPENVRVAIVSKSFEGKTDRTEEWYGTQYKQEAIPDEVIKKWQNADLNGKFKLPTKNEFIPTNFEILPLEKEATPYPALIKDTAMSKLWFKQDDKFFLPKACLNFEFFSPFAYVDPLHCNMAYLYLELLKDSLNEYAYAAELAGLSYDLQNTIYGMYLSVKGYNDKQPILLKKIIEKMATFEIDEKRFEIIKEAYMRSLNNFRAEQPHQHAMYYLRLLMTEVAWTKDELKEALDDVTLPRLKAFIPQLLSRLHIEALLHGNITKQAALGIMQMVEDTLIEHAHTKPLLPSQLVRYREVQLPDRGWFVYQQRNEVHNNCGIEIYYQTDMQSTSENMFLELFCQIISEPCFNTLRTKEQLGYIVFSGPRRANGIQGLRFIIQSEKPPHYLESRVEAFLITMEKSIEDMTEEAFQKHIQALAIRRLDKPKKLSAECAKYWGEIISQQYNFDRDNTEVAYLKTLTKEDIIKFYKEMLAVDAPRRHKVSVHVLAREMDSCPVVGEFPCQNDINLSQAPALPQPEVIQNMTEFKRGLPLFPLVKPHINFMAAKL

[3] = target: T2, DNA repair protein RAD52 homolog (Homo sapiens, UniProt P43351); type: functional, biochemical
T2 sequence (P43351 whole entry): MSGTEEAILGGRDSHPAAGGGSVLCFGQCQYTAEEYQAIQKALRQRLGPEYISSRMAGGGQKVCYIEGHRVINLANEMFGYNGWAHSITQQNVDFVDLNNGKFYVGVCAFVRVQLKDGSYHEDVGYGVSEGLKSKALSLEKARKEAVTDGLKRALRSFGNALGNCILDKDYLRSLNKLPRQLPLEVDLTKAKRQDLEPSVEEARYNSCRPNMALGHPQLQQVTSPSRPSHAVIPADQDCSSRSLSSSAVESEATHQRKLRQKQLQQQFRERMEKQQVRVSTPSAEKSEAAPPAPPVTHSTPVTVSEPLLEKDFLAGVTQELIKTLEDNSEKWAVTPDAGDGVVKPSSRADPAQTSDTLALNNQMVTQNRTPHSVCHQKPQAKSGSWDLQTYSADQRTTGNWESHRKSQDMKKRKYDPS

Coagulation factor XII = target: T3, Coagulation factor XII (Homo sapiens, UniProt P00748); type: functional;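 further: activated factor XIIa alpha cleaving a fluorogenic AMC peptide substrate; inhibitor potency from loss of enzyme activity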
T3 sequence (P00748 whole entry): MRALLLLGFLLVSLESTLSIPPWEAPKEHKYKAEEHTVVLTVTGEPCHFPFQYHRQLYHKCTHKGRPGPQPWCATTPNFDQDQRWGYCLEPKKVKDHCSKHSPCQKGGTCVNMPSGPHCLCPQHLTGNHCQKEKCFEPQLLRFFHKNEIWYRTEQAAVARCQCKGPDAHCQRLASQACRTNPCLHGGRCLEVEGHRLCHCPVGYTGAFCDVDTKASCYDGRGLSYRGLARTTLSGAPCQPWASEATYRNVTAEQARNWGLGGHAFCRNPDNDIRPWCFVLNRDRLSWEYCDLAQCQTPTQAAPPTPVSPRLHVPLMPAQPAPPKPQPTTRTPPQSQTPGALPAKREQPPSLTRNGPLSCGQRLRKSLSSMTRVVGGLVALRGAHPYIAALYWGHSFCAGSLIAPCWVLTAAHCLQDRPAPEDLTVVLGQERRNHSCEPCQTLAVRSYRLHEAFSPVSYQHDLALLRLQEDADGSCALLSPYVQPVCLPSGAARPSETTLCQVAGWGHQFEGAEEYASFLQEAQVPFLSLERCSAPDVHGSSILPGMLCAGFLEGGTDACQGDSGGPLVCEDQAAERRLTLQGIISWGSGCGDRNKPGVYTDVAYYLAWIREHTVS

[4] = viability loss in THP-1 monocytes – THP-1 cells, cytotoxicity control for Vif-APOBEC3G degradation inhibitor project, dose response (AID 1117359); type: functional; settings: THP-1
HEK293 [5] = assay: membrane integrity loss in HEK cells – cell-based, fluorescence, cytotoxicity control for IDE activator project, dose response (AID 588440); type: functional; settings: Homo sapiens;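 further: cytotoxicity by LDH release measuring loss of membrane integrity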
Insulin-degrading enzyme [6] = target: T1, Insulin-degrading enzyme; assay: cellular IDE activation of Abeta substrate cleavage – fluorescence polarization, HEK cells, dose response (AID 588439); type: functional, cell-based
[7] = target: T4, Ubiquitin-conjugating enzyme E2 N (Homo sapiens, UniProt P61088); type: functional
T4 sequence (P61088 whole entry): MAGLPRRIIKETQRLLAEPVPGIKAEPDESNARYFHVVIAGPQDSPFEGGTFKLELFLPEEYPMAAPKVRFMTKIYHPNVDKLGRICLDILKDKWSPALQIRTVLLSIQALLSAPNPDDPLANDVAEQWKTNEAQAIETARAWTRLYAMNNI

[8] = microbe, parasite or virus in culture; type: functional; settings: Mycobacterium tuberculosis
[9] = target: T4, Ubiquitin-conjugating enzyme E2 N; type: functional; remark: listed apart in the source
Bcl-2-related protein A1 = target: T5, Bcl-2-related protein A1 (Mus musculus, UniProt Q07440); type: functional;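 further: confirmatory dose–response counterscreen on Bfl-1, used to check hits from a UBC13 polyubiquitin inhibitor campaign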
T5 sequence (Q07440 whole entry): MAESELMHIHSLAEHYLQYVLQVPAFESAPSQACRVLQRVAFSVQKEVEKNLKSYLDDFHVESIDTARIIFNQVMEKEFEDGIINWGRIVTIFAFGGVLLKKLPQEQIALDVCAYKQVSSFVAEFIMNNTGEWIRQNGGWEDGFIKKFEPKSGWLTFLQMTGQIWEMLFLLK

HEK293 [10] = assay: optical interference in Abeta FP readout, dose response, artefact control for IDE activator project, biochemical, fluorescence polarization (AID 588442); type: functional, cell-based; settings: Homo sapiens
[11] = activation of miR-122 Renilla sensor silencing – cell-based, Huh7 psiCHECK-miR122, Renilla luciferase, cherry-picked, dose response (AID 651956); type: functional;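 further: huh7 hepatoma cells stably carrying a psiCHECK-2 miR-122 sensor plasmid; renilla luciferase signal reporting endogenous miR-122 activity after 48 h compound exposure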
[12] = general mammalian cell viability loss – activator set, cherry-pick, cytotoxicity control for miR-122 modulator project, dose response (AID 720690); type: functional, cell-based;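 further: HEK293T human cells scored for general mammalian cytotoxicity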
[13] = target: Neuropeptides B/W receptor type 1 (Homo sapiens, UniProt P48145); assay: human NPBW1 receptor blockade, IC50 – cell-based, fluorescence, dose response, set 5, late-stage follow-up (AID 588566); type: functional
[14] = target: Melanin-concentrating hormone receptor 1 (Homo sapiens, UniProt Q99705); assay: Late-stage fluorescence-based counterscreen for antagonists of the G-protein coupled receptor 7 (GPR7): cell-based dose response assay to identify antagonists of the melanin-concentrating hormone receptor 1 (MCHR1) Set 5.; type: functional
[15] = target: cAMP-dependent protein kinase catalytic subunit alpha (Homo sapiens, UniProt P17612); type: functional
[16] = target: MAP kinase-interacting serine/threonine-protein kinase 2 (Homo sapiens, UniProt Q9HBH9); type: functional
[17] = target: Interleukin-1 receptor-associated kinase 4 (Homo sapiens, UniProt Q9NWZ3); type: functional
[18] = target: Mitogen-activated protein kinase kinase kinase kinase 4 (Homo sapiens, UniProt O95819); type: functional
[19] = target: Glycogen synthase kinase-3 beta (Homo sapiens, UniProt P49841); type: functional;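 further: value comes from a broad kinome profiling panel, with GSK3B as the panel member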
[20] = target: Cell division cycle 7-related protein kinase (Homo sapiens, UniProt O00311); type: functional;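 further: value obtained from a kinome-wide kinase panel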
[21] = target: Serine/threonine-protein kinase pim-1 (Homo sapiens, UniProt P11309); type: functional
[22] = target: DNA dC->dU-editing enzyme APOBEC-3A (Homo sapiens, UniProt P31941); assay: SAR analysis of small molecule inhibitors of APOBEC3A DNA Deaminase via a fluorescence-based single-stranded DNA deaminase assay.; type: functional; settings: read-out: IC50_Mean
[23] = target: DNA dC->dU-editing enzyme APOBEC-3G (Homo sapiens, UniProt Q9HC16); assay: inhibition of APOBEC3G ssDNA deamination – biochemical, fluorescence, single-stranded DNA substrate, SAR follow-up (AID 602136); type: functional; settings: read-out: IC50_Mean
[24] = target: T6, Apoptotic protease-activating factor 1 (Homo sapiens, UniProt O14727); assay: SAR analysis of small molecule Activators of Apaf-1 in a Fluorescent assay.; type: functional; settings: read-out: EC50_Mean;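 further: caspase-3 cleavage of fluorogenic Rh110 DEVD substrate downstream of apoptosome activation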
T6 sequence (O14727 whole entry): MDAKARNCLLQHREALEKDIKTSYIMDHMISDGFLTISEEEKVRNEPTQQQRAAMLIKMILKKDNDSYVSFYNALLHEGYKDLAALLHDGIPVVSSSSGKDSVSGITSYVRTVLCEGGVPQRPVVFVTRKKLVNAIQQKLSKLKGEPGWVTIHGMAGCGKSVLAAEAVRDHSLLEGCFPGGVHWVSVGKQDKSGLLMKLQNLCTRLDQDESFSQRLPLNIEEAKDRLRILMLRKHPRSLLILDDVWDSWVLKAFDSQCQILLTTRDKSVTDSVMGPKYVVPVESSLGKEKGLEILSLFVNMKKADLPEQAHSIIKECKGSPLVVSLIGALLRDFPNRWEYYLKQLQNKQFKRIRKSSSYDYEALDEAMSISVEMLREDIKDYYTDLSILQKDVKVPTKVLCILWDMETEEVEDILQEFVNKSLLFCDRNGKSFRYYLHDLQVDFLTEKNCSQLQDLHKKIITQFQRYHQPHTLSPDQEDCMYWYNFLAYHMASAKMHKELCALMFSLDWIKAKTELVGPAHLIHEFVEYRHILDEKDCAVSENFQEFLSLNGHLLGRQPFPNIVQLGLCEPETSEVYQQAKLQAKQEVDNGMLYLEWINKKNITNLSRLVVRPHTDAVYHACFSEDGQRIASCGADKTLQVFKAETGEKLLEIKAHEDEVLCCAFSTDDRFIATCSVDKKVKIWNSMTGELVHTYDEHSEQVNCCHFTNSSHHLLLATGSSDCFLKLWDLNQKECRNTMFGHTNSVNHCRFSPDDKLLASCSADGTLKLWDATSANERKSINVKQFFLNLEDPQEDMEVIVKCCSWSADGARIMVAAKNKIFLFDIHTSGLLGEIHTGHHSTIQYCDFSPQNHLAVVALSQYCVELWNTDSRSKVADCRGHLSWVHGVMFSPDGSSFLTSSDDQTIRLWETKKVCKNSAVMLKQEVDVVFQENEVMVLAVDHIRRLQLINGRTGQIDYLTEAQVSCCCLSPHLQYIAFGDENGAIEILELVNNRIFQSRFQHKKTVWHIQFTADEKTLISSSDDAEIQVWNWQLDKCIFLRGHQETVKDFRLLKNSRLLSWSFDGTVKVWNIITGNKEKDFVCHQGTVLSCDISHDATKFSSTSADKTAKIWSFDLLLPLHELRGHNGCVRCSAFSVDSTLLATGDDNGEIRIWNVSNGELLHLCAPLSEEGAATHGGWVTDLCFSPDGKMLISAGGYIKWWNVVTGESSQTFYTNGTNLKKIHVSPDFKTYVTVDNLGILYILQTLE

Activin receptor type-1 = Activin receptor type-1 (Homo sapiens, UniProt Q04771); assay: Navigating the Kinome. Panel member name: ACVR1; type: functional
Chain of Activin receptor type-1 (Q04771 whole entry): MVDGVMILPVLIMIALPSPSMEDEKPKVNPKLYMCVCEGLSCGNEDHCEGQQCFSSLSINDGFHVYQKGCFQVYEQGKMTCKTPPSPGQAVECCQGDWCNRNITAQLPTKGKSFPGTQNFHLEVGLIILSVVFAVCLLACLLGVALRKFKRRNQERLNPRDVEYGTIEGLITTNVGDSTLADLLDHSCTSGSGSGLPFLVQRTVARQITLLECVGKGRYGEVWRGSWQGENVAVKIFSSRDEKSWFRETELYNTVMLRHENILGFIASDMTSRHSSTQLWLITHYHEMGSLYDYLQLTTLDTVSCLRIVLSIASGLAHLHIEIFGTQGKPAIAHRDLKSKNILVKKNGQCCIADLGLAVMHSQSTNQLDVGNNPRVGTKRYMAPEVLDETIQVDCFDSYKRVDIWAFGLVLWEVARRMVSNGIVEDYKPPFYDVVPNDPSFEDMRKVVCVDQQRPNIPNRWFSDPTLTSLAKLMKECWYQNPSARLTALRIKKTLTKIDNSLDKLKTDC

Chain of Melanin-concentrating hormone receptor 1 (Q99705 whole entry): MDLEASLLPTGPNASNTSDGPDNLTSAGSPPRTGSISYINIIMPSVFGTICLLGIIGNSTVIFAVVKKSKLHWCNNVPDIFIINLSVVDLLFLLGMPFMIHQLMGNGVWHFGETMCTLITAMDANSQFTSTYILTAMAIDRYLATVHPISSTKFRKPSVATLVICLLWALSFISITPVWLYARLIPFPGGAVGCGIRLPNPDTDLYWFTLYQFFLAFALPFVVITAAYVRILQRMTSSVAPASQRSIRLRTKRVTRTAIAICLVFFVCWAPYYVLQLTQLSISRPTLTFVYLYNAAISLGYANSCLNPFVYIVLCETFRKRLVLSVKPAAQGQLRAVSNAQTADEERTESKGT
Chain of DNA dC->dU-editing enzyme APOBEC-3G (Q9HC16 whole entry): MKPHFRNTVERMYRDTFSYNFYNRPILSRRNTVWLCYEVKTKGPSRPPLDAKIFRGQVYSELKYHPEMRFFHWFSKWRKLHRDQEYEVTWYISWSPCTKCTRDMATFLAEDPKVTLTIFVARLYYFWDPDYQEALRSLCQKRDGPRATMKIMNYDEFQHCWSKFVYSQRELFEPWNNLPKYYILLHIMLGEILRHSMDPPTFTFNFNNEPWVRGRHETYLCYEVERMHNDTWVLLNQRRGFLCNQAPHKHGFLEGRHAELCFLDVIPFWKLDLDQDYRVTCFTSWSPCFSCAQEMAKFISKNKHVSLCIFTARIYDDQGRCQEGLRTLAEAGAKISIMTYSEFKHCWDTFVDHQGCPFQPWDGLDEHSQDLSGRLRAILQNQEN
Chain of Neuropeptides B/W receptor type 1 (P48145 whole entry): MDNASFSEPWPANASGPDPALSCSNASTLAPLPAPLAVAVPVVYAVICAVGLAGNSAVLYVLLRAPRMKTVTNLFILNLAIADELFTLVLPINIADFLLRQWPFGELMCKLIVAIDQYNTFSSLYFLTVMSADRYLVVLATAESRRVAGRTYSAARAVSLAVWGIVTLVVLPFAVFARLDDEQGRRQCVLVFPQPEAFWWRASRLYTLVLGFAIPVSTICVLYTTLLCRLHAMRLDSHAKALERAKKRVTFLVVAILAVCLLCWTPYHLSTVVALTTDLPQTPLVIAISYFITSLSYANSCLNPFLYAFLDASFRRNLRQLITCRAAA
Chain of DNA dC->dU-editing enzyme APOBEC-3A (P31941 whole entry): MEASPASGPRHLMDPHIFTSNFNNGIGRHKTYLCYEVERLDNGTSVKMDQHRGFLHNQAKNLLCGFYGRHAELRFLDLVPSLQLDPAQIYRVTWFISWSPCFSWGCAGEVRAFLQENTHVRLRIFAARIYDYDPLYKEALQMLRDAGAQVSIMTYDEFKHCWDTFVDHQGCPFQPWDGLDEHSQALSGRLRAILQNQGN
Chain of Serine/threonine-protein kinase pim-1 (P11309 whole entry): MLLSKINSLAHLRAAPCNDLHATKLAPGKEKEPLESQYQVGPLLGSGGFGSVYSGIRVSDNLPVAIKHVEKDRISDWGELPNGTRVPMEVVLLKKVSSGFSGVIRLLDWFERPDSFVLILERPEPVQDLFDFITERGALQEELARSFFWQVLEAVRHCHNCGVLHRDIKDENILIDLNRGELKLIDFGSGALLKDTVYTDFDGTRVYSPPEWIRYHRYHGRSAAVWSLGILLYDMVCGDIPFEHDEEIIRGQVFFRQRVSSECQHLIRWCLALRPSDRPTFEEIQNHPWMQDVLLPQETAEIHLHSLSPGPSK
Chain of MAP kinase-interacting serine/threonine-protein kinase 2 (Q9HBH9 whole entry): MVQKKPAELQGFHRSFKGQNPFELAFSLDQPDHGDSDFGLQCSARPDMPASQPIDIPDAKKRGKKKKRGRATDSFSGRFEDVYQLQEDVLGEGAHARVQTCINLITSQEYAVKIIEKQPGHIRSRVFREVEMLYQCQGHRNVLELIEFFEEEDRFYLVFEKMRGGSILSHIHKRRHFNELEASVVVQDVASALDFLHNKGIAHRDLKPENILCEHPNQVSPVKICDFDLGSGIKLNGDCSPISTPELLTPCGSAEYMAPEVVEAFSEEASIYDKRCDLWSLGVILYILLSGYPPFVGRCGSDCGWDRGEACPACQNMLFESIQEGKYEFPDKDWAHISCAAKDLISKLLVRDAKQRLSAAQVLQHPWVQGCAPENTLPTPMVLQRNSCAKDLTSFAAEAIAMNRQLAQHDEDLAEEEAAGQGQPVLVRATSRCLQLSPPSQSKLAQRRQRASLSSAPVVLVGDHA
Chain of Mitogen-activated protein kinase kinase kinase kinase 4 (O95819 whole entry): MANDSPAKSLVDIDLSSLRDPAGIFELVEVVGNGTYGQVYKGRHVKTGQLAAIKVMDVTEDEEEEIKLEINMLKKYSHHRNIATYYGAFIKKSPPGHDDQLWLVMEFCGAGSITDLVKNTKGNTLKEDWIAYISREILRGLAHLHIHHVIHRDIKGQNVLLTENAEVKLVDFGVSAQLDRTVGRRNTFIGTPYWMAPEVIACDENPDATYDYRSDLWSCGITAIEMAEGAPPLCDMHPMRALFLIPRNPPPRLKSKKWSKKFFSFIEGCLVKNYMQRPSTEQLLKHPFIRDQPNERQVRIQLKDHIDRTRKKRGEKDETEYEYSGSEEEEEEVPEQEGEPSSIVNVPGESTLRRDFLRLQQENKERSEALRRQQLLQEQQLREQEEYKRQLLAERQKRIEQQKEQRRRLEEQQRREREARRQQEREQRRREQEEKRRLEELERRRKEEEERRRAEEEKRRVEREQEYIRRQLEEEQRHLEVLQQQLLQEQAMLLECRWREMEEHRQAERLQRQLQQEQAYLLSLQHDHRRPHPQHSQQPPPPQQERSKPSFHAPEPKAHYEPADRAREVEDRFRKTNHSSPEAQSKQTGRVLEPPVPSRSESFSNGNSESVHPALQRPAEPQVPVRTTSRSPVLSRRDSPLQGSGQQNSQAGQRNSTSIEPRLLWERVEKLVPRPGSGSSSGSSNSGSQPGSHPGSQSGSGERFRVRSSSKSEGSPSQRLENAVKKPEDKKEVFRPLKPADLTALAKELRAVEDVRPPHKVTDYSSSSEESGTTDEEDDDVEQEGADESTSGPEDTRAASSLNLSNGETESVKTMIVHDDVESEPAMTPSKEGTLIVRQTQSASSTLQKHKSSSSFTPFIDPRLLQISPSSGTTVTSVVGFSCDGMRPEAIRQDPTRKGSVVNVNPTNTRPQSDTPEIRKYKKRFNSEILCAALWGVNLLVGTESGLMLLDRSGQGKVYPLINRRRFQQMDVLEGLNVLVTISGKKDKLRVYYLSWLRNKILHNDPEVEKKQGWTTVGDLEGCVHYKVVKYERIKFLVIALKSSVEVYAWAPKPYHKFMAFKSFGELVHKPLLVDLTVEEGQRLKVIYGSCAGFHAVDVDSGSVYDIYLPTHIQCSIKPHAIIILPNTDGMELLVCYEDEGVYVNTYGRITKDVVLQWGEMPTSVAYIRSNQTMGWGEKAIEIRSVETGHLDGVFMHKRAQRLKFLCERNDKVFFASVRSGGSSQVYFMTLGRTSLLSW
Chain of Glycogen synthase kinase-3 beta (P49841 whole entry): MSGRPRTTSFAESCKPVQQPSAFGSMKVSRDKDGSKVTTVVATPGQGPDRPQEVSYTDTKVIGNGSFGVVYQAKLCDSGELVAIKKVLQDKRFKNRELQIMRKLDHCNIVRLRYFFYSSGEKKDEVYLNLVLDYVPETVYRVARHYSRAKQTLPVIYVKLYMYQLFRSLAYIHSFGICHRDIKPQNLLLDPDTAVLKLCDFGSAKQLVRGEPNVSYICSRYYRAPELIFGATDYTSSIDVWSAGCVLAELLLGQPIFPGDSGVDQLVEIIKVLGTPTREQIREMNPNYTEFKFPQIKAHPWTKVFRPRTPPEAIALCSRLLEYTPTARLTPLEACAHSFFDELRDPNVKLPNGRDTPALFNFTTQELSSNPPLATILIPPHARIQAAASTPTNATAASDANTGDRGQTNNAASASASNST
Chain of Cell division cycle 7-related protein kinase (O00311 whole entry): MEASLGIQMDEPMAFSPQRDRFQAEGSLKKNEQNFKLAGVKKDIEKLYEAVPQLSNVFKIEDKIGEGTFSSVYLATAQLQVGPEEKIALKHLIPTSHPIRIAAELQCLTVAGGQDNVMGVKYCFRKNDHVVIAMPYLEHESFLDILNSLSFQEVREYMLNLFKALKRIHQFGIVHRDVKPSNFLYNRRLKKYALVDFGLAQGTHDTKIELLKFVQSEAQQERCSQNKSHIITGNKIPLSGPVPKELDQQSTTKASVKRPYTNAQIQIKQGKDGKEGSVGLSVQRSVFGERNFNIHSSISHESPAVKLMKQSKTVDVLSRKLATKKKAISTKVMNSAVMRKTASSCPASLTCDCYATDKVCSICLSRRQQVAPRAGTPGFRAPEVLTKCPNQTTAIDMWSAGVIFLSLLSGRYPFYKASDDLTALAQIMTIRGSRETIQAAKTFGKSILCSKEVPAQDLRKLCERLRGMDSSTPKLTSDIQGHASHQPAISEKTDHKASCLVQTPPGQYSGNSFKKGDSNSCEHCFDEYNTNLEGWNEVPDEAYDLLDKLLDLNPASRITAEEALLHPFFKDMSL

Cc1cc2nc(N)sc2cc1C
AC50 [1]: 10 µM (inconclusive)

CN(C)CCNc1ncnc2c1sc1nc(-c3ccccc3)c3c(c12)CCCC3
EC50 (Insulin-degrading enzyme [2]): > 54.7 µM (inactive) | AC50 [3]: 6.93 µM (active) | IC50 (Coagulation factor XII): > 50 µM (inactive) | CC50 [4]: 31.1 µM (active) | IC50 (HEK293 [5]): 10.4 µM (inactive) | EC50 (Insulin-degrading enzyme [6]): 21.7 µM (inactive) | IC50 [7]: 7.72 µM (active) | CC50 [8]: 7.38 µM (active) | IC50 [9]: 13 µM (active) | IC50 (Bcl-2-related protein A1): > 20 µM (inactive) | EC50 (HEK293 [10]): > 54.7 µM (inactive) | AC50 [11]: 19.4 µM (active) | AC50 [12]: 16.2 µM (active)

O=c1c(Oc2ccc3c(c2)OCO3)c(Cl)cnn1C1c2ccccc2-c2ccccc21
IC50 [13]: > 20 µM (inactive) | IC50 [14]: > 20 µM (inactive)

COc1ccc(Oc2c(Cl)cnn(CC(=O)N(C3CCCCC3)C3CCCCC3)c2=O)cc1
IC50 [13]: 15.7 µM (inactive) | IC50 [14]: > 20 µM (inactive)

CCCCNc1cc(-c2c[nH]c3ncccc23)ncn1
Ki [15]: 1 µM (active) | Ki [16]: 0.0631 µM (active) | Ki [17]: 1 µM (active) | Ki [18]: 0.0158 µM (active) | Ki [19]: 0.0501 µM (active) | Ki [20]: 0.00631 µM (active) | Ki [21]: 0.158 µM (active)

Cn1c(SCC(N)=O)nnc1-c1sc2cc(Cl)ccc2c1Cl
IC50 [22]: > 99 µM (inactive) | IC50 [23]: > 99 µM (inactive)

CC(C)Cn1c(=O)c2cc(Cl)ccc2n2c(SCc3ccc(Cl)cc3)nnc12
IC50 [22]: > 99 µM (inactive) | IC50 [23]: > 99 µM (inactive)

CO[C@@H]1CS(=O)(=O)C2C(c3ccc(F)cc3)=NOC21 (stereo partly specified)
EC50 [24]: > 100 µM (inactive)

Cn1c(=O)n(-c2ccc(C(C)(C)C#N)cc2)c2c3cc(-c4cnc5ccccc5c4)ccc3ncc21 [DACTOLISIB]
Ki (Activin receptor type-1): 1.26 µM (active)
